Read-outs that look alike come from different tables or passages of the source.

The values below come from publication PMC8032764 (Scientific Reports, 2021).

In one series the target is human GABAA α5β3γ2 (Homo sapiens, UniProt P18507+P31644). Description: Two-electrode voltage clamp in Xenopus oocytes, current induced by EC10 of GABA. It counts as cell-based. Details: expressed in transfected cells; host or cells: Xenopus laevis oocytes, cRNA injection. As to the method:
Freshly prepared oocytes of maturation stage VI were bought from Ecocyte Bioscience (Castrop-Rauxel, Germany) and, after overnight delivery, plated into 96-well plates (Greiner no. 651101) for microinjection on a ROBOOCYTE R16 system (Multichannel Systems MCS GmbH, Reutlingen, Germany). Each oocyte was injected with roughly 50 nL of RNA solution. The solution for expressing receptors composed of the human α1, β2 and γ2 subunits contained 3 pg/nL of α1 and β2 RNA and 15 pg/nL of γ2 RNA. The solution for expressing human α2β3γ2 receptors contained 2.5 pg/nL of α2 and β3 RNA, 5 pg/nL of γ2 RNA and 10 pg/nL of GABARAP RNA. The solution for expressing human α3β3γ2 receptors contained 1.3 pg/nL of α3 and β3 RNA and 6.5 pg/nL of γ2 RNA. The solution for expressing human α5β3γ2 receptors contained 1.3 pg/nL of α5 and β3 RNA and 13 pg/nL of γ2 RNA. […] After the microinjection the oocytes were kept at 20 °C temperature until the electrophysiological experiment. Experiments were done 3 to 5 days later on the ROBOOCYTE instrument which employs the two-microelectrode voltage-clamp technique for membrane voltage control and current measurement. […] During current recording and compound testing the cell membrane was constantly clamped to − 80 mV. Current signals were recorded and stored on a PC-type computer using the ROBOOCYTE software.
(§1) During the microinjection and up to the electrophysiological experiment the oocytes were kept in a solution containing 88 mM NaCl, 1 mM KCl, 2.5 mM NaHCO3, 10 mM HEPES (AppliChem GmbH, Darmstadt, Germany), 0.82 MgSO4, 0.33 mM Ca(NO3)2, 0.33 mM CaCl2, 100 U/mL penicillin (GIBCO, ThermoFisher Scientific) and 100 µg/mL streptomycine (GIBCO, ThermoFisher Scientific). The pH was adjusted to 7.5. During the experiment the voltage-clamped oocyte was constantly superfused by a solution containing 90 mM NaCl, 1 mM KCl, 5 mM HEPES (AppliChem), 1 mM MgCl2 and 1 mM CaCl2 (pH 7.4). GABA and test compounds were added to this solution. GABA concentrations were chosen according to previously determined concentration–response relations for the different human GABAA receptor subunit combinations. Concentrations evoking approximately 10% of a maximal response were selected, i.e., 8 µM for α1β2γ2, 6 µM for α2β3γ2, 10 µM for α3β3γ2 and 5 µM for α5β3γ2. Solutions containing GABA or test compounds were freshly prepared at least every second day. […] Compounds were further diluted in DMSO and finally in extracellular saline to reach a DMSO concentration of 0.1%. The same amount of DMSO was added to the control solutions without test compounds.
During the experiment the solutions were fed into the well containing the voltage-clamped oocyte via Teflon tubings connected by electromagnetic valves which allowed rapid switching between different solutions (controlled by the ROBOCYTE software). Approximately 1–2 min after impaling an oocyte and switching to voltage-clamp mode GABA was applied for 90 s to record a control response. Thereafter the oocyte was washed with saline for 160 s followed by another 90 s GABA application. Then 30 s after the onset of the second GABA application the system switched to a solution containing GABA plus the test compound. Each oocyte was used for testing one concentration of a single test compound (for α5β3γ2: 1 nM: n = 8, 10 nM: n = 8, 100 nM: n = 7, 1000 nM: n = 7).
In this case each GABA application lasted 110 s and the rest period between the two GABA applications was 190 s long.
On each 96-well plate 3–6 oocytes were used for testing a known NAM at the BZD binding site, β-CCM (FG7106), as a positive control. […] Maximally effective concentrations of β-CCM were used for each subunit combination, i.e., 100 nM β-CCM for α1β2γ2, 300 nM for α2β3γ2 or α3β3γ2 and 1 µM for α5β3γ2.
Background: Two-electrode voltage clamp is typically applied to oocytes expressing channels or transporters.

For the next series, the target named is GABAA α1β3γ2. The following applies: Table S4a, cited from earlier work.
Another series concerns the target GABAA α2β3γ2. The following applies: Table S4a, cited from earlier work.
The target in another series is GABAA α3β3γ2. The following applies: Table S4a, cited from earlier work.
A further series concerns the target GABAA α5β3γ2. The note with it: cited from earlier work.
The subject of a further series is male Lister Hooded rats. Description: Diazepam-induced spatial learning impairment in the Morris water maze. It counts as in vivo, rat. The following applies: diazepam 6 mg/kg i.p. As to the method:
The current study used a modified version of the standard acquisition protocol, in which pre-trained rats had to learn to locate a new platform position during six trials on the test day, as described previously. Subjects were semi-randomly divided into treatment groups based on their performance on the last training day. A computer tracking system (HVS Image Ltd, UK) was used to analyse each rat’s swim path on-line.
Latency, pathlength and swim speed (Supplementary Fig. S2) were analysed with a one-factor ANOVA. For the probe trial, to determine whether each treatment group had learned the spatial position of the platform, within-subjects ANOVA was used to compare percent time spent in the platform quadrant with the left, right and opposite quadrants. All significant cases were followed by a post hoc Newman–Keuls test. In addition, a comparison between vehicle treated and diazepam-treated rats on the percent time spent in the platform quadrant was analysed using an unpaired t-test.

The next series has as its system Wistar rats. Put plainly: Pentylenetetrazole (PTZ) test. The class given is in vivo, rat. The note with it: positive control, 10 mg/kg i.p. 30 min prior to PTZ, p < 0.05. The procedure: PTZ was prepared in 0.9% saline and was administered s.c. in a volume of 1 mL/kg. The positive control FG7142, a non-selective GABAA receptor NAM, was prepared in 0.3% Tween 80 v/v saline and was administered i.p. in a volume of 1 mL/kg. […] During this period the number of rats showing tonic convulsions was noted.
FG7142 was administered at 10 mg/kg 30 min prior to PTZ. The percent of rats in each dose group showing tonic convulsions was compared to the control group by the Pearson Chi-Square test.

The next series deals with male F-344 rats. Description: Social approach avoidance test. The note with it: positive control, 3 mg/kg p.o., 30 min prior to testing.
Another series relates to T1, human GABAA α2β3γ2.
T1 construct: expressed in transfected cells; host or cells: Xenopus laevis oocytes, cRNA injection
Put plainly: Two-electrode voltage clamp in Xenopus oocytes, current induced by EC10 of GABA. The following applies: 300 nM β-CCM; not shown. The class given is cell-based. The procedure:
Freshly prepared oocytes of maturation stage VI were bought from Ecocyte Bioscience (Castrop-Rauxel, Germany) and, after overnight delivery, plated into 96-well plates (Greiner no. 651101) for microinjection on a ROBOOCYTE R16 system (Multichannel Systems MCS GmbH, Reutlingen, Germany). Each oocyte was injected with roughly 50 nL of RNA solution. The solution for expressing receptors composed of the human α1, β2 and γ2 subunits contained 3 pg/nL of α1 and β2 RNA and 15 pg/nL of γ2 RNA. The solution for expressing human α2β3γ2 receptors contained 2.5 pg/nL of α2 and β3 RNA, 5 pg/nL of γ2 RNA and 10 pg/nL of GABARAP RNA. The solution for expressing human α3β3γ2 receptors contained 1.3 pg/nL of α3 and β3 RNA and 6.5 pg/nL of γ2 RNA. The solution for expressing human α5β3γ2 receptors contained 1.3 pg/nL of α5 and β3 RNA and 13 pg/nL of γ2 RNA. GABARAP was added to the α2β3γ2 subunit mixture since the expression of γ2 would be low otherwise, as indicated by a weak effect of β-CCM[60]. After the microinjection the oocytes were kept at 20 °C temperature until the electrophysiological experiment. Experiments were done 3 to 5 days later on the ROBOOCYTE instrument which employs the two-microelectrode voltage-clamp technique for membrane voltage control and current measurement. […] During current recording and compound testing the cell membrane was constantly clamped to − 80 mV. Current signals were recorded and stored on a PC-type computer using the ROBOOCYTE software.
as §1, with “compounds. […]” for “compounds.”

Sequence of human GABAA α5β3γ2 (P31644 32-462): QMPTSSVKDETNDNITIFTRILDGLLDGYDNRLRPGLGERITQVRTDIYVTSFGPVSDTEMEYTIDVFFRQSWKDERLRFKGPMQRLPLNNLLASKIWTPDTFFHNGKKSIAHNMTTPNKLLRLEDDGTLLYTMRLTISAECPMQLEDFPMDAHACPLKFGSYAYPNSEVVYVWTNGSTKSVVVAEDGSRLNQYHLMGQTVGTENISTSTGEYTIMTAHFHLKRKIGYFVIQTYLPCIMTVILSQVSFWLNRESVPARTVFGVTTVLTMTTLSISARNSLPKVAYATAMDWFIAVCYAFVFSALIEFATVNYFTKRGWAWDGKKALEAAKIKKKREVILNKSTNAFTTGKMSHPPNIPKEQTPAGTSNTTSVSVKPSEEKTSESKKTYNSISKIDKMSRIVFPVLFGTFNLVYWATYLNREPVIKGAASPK
Sequence of human GABAA α5β3γ2 (P28472 26-473 partner): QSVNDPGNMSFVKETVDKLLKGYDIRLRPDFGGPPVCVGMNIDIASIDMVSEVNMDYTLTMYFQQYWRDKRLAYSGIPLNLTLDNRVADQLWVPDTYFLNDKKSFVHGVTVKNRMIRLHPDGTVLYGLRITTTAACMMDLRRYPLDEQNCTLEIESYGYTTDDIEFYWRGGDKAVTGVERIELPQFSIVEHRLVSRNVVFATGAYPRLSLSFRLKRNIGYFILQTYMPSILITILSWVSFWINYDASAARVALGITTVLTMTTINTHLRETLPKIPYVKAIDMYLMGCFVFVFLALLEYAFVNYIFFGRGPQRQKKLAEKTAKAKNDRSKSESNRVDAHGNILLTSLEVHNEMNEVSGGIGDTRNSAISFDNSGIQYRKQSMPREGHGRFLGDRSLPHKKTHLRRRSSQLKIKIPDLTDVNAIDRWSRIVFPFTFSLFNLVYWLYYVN
Sequence of human GABAA α5β3γ2 (P18507 40-475): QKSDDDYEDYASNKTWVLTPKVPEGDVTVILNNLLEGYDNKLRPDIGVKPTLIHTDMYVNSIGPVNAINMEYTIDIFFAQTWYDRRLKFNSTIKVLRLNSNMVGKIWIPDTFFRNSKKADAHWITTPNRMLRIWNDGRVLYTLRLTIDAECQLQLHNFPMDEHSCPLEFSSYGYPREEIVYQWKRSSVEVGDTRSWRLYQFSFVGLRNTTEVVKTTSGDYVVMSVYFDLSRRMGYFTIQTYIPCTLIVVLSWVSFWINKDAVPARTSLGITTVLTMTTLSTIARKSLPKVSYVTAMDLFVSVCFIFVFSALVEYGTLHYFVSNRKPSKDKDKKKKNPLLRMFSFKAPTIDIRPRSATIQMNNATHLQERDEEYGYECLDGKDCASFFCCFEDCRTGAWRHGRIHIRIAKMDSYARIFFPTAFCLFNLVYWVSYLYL
Procedure for male F-344 rats: Experiments on social approach avoidance were performed as described previously by[41] and[14]. A tracking system (Ethovision, Noldus, The Netherlands) was used to analyse each rat’s pathway.

As to `CCOC(=O)c1ncn2c1CN(C)C(=O)c1cc(F)ccc1-2` [Flumazenil, reference compound], the “enhancement of the GABA-induced current” value on human GABAA α5β3γ2 (30 and 1000 nM, concentration-dependent) is recorded as “up to 28%”.

`CCOC(=O)c1ncn2c1[C@@H]1CCCN1C(=O)c1cc(OC)ccc1-2` [L-655,708]: the Ki (usually a measure of affinity in units of concentration, obtained from inhibition or displacement) at GABAA α1β3γ2 (ref Atack et al., 2006) was 70 nM; at GABAA α2β3γ2 (ref Atack et al., 2006) it was 48 nM; at GABAA α3β3γ2 (ref Atack et al., 2006), 31 nM; on GABAA α5β3γ2 (Table S4a, ref Atack et al., 2006, read-out: Ki α5β3γ2) it was 1 nM; on GABAA α5β3γ2 (discussion, no reference given, read-out: Ki at the GABAA-α5 receptor subtype), roughly 1 nM.

In the case of `CN1C(=O)CN=C(c2ccccc2)c2cc(Cl)ccc21` [Diazepam, reference compound], in the series with male Lister Hooded rats, the “latency and pathlength to find the platform across six trials” value was “significantly increased the latency and pathlength”; the swim speed result was “small but significant increase in swim speed”. The “probe trial, learning of the new platform position” value with male Lister Hooded rats (30 min before test) is “significantly disrupted learning of the new platform position”.

For the compound `CNC(=O)c1cc2c(cn1)[nH]c1ccccc12` [FG7142, N-Methyl-9H-pyrido[5,4-b]indole-3-carboxamide, reference compound], the “number of rats showing tonic convulsions” value in the series on Wistar rats is given as “increased the number of rats showing tonic convulsions”.

As to `CN1Cc2c(C(=O)OC(C)(C)C)ncn2-c2ccsc2C1=O` [Ro 19-4603, reference compound], the “time in the social compartment” value in the series on male F-344 rats (p < 0.001) is listed as “significantly decreased the time in the social compartment”. Besides, the “time in the hidden area” value with male F-344 rats (p < 0.05) is “increased the time in the hidden area”.

As to `COC(=O)c1cc2c(cn1)[nH]c1ccccc12` [β-CCM, methyl beta-carboline-3-carboxylate, reference compound], in the series on human GABAA α2β3γ2, the “inhibition of GABA response” value is listed as 42%. The “reduction of the GABA-evoked current” value at human GABAA α5β3γ2 (maximally effective concentration, 1 µM β-CCM, data not shown) was determined as 52%.

In the case of `COCc1ncn2c1CN(C)C(=O)c1cc(Cl)ccc1-2` [PWZ-029], the Ki on GABAA α1β3γ2 (ref Savić et al., 2008) was 920 nM; on GABAA α2β3γ2 (ref Savić et al., 2008) it was greater than 300 nM; on GABAA α3β3γ2 (ref Savić et al., 2008), greater than 300 nM; at GABAA α5β3γ2 (Table S4a, ref Savić et al., 2008, read-out: Ki α5β3γ2), 30 nM.
